{"source": "paper PMC11358582", "about": "“Discovery of a potential bladder cancer inhibitor CHNQD-01281 by regulating EGFR and promoting infiltration of cytotoxic T cells” (Marine Life Science & Technology, 2024)", "key": {"[1]": {"test_system": "MB49 tumor", "experiment": "MB49 homologous (syngeneic) tumor model", "type": "in vivo, C57BL/6 mice", "experimental": "Specific pathogen free (SPF)-grade C57BL/6 mice and BALB/c-nu mice were purchased from Jinan Pengyue Experimental Animal Center (license No. SCXK 20190003). The protocol was approved by the Research Review Committee of the Ocean University of China. All mice were housed in 12-h light and 12-h dark conditions in which the humidity was 50% ± 10% and the temperature was 22 ± 2 °C. All mice had free access to food and water. The human bladder cancer cell line T24 was injected subcutaneously into BALB/c-nu mice to construct a xenograft tumor model. The cell suspension of mouse bladder cancer cell line MB49 was injected into C57BL/6 mice subcutaneously to construct a syngeneic tumor model.\nFixed tissues were embedded in paraffin and then sectioned. The specimens were incubated with antibodies against Ki67, CD3, CD4, CD8 (Servicebio, China) and EGFR (ABclonal, China) at 4 °C overnight. The next day, the slides were washed with 1 × PBST three times for 5 min each and stained with the secondary antibodies and Hoechst 33342 dye (Beyotime, China) for 60 min for IF. For IHC staining, the sections were developed with a rabbit/mouse HRP kits (DAB) (Beyotime, China) according to the manufacturer’s instructions.\nIn addition, apoptosis, necrosis, and increased eosinophil cytoplasm were observed and there was a large number of lymphocyte infiltration in the treatment group."}, "[2]": {"test_system": "J82 cell line", "experiment": "Colony formation assay", "type": "cell-based", "settings": "Homo sapiens, 288 h, 12 days, read-out: inhibition rate on colony formation", "experimental": "(§1) T24 and J82 cell lines were seeded in 6-well plates at 500 cells/well. The cells were cultured overnight in medium. Compound CHNQD-01281 was added according to the concentration gradient, and the cells were placed in a 37 °C cell incubator containing 5% CO2 for 12 days. The cells were then fixed with 4% paraformaldehyde for 15 min and stained with crystal violet for 30 min. After that, pictures were taken and colony numbers were counted. The clone formation rate relative to the solvent control group was calculated.\n(§2) Cell proliferation ability was also detected by colony formation assay (Kabakov et al. [2018]), and the results are shown in Fig. 3A−B. CHNQD-01281 was applied for 12 days to detect long-term proliferation inhibition of T24 and J82 cell lines."}, "[3]": {"test_system": "T24 cell line", "experiment": "Colony formation assay", "type": "cell-based", "settings": "Homo sapiens, T-24, 288 h, 12 days, read-out: inhibition rate on colony formation", "experimental": "as §1, §2"}, "[4]": {"test_system": "BxPC-3 cells", "experiment": "MTT cell proliferation assay", "type": "cell-based, human", "experimental": "(§3) Human tumor cell lines Eca-109, BEL-7402, BxPC-3, HCT-116, HT-29, T24, HCT-8, SGC-7901, DLD-1, TE-1, BT-549, MGC-803 and human hepatocyte cell line L-02 were cultured in Roswell Park Memorial Institute (RPMI) 1640. HuH-7 and SW-480 were cultured in Dulbecco’s modified Eagle’s medium (DMEM). J82, HepG2, Hela, U87 were cultured in Minimum Essential Medium (MEM). Murine bladder cancer cell line, MB49, was cultured in DMEM. The above-mentioned culture medium was provided by GIBCO (Grand Island, USA), contained 10% fetal bovine serum (PAN, Germany), 10 mg/mL of streptomycin, and 10 kU/mL penicillin (Beyotime, China).\n(§4) Cells were seeded in 96-well plates and incubated with indicated concentrations of CHNQD-01281 for indicated periods. Next, medium was discarded and MTT (5 mg/mL) was added to each well. The cells were incubated at 37 °C for another 4 h. After that, supernatant was discarded, and DMSO was added and incubated at 37 °C for 15 min. Finally, absorbance was measured at 570 nm (Molecular Devices, USA).\n(§5) To investigate whether CHNQD-01281 had selective inhibitory effect on cancer cell lines, a variety of human tumor cell lines were assayed by MTT, such as bladder cancer cell lines (J82 and T24), colorectal cancer cell lines (HCT-116, HT-29, HCT-8, DLD-1 and SW-480), cervical cancer cell line (Hela), esophageal cancer cell lines (TE-1 and Eca-109), breast cancer cell line (BT-549), gastric carcinoma cell lines (MGC-803 and SGC-7901), glioma cell line (U87), pancreatic carcinoma cell line (BxPC-3) and hepatocellular carcinoma cell lines (Hep G2, BEL-7402 and HuH-7) (Fig. 2A)."}, "[5]": {"test_system": "HCT-116 cells", "experiment": "MTT cell proliferation assay", "type": "cell-based, human", "experimental": "as §3, §4, §5"}, "[6]": {"test_system": "TE-1 cells", "experiment": "MTT cell proliferation assay", "type": "cell-based, human", "experimental": "as §3, §4, §5"}, "[7]": {"test_system": "DLD-1 cells", "experiment": "MTT cell proliferation assay", "type": "cell-based, human", "experimental": "as §3, §4, §5"}, "[8]": {"test_system": "U87 cells", "experiment": "MTT cell proliferation assay", "type": "cell-based, human", "experimental": "as §3, §4, §5"}, "[9]": {"test_system": "Hep G2 cells", "experiment": "MTT cell proliferation assay", "type": "cell-based, human", "experimental": "as §3, §4, §5"}, "[10]": {"test_system": "SW-480 cells", "experiment": "MTT cell proliferation assay", "type": "cell-based, human", "experimental": "as §3, §4, §5"}, "[11]": {"test_system": "HT-29 cells", "experiment": "MTT cell proliferation assay", "type": "cell-based, human", "experimental": "as §3, §4, §5"}, "[12]": {"test_system": "MGC-803 cells", "experiment": "MTT cell proliferation assay", "type": "cell-based, human", "experimental": "as §3, §4, §5"}, "[13]": {"test_system": "Eca-109 cells", "experiment": "MTT cell proliferation assay", "type": "cell-based, human", "experimental": "as §3, §4, §5"}, "[14]": {"test_system": "HCT-8 cells", "experiment": "MTT cell proliferation assay", "type": "cell-based, human", "experimental": "as §3, §4, §5"}}, "data": [{"smiles": "C[C@H]1CCC/C=C/[C@@H]2C[C@H](O)C[C@H]2[C@H](OC(=O)/C=C/c2cccnc2)/C=C/C(=O)O1", "note": "[CHNQD-01281, Brefeldin A 4-O-3-(pyridin-3-yl) acrylate]", "values": [{"measurement": "mice with tumor disappearance", "setting": "[1]; 10 mg/kg intratumoral, no recurrence within 30 days after cessation", "result": 20, "unit": "%"}, {"measurement": "life prolongation rate (ILS)", "setting": "[1]; 10 mg/kg, intratumoral injection, QD", "result": 68.16, "unit": "%"}, {"measurement": "infiltration of CD3+, CD4+ and CD8+ T cells (immunofluorescence)", "setting": "[1]; 10 mg/kg, intratumoral injection, QD, tumor tissue", "result": "significantly increased"}, {"measurement": "inhibition at 0.04 µM", "setting": "[2]; J82, 0.04 µmol/L", "result": 25.1, "unit": "%"}, {"measurement": "inhibition at 0.08 µM", "setting": "[2]; J82, 0.08 µmol/L", "result": 58.3, "unit": "%"}, {"measurement": "inhibition at 0.16 µM", "setting": "[2]; J82, 0.16 µmol/L", "result": 85.9, "unit": "%"}, {"measurement": "inhibition at 0.04 µM", "setting": "[3]; T24, 0.04 µmol/L", "result": 17, "unit": "%"}, {"measurement": "inhibition at 0.08 µM", "setting": "[3]; T24, 0.08 µmol/L", "result": 52.5, "unit": "%"}, {"measurement": "inhibition at 0.16 µM", "setting": "[3]; T24, 0.16 µmol/L", "result": 95.5, "unit": "%"}, {"measurement": "IC90", "setting": "[4]; Homo sapiens, BxPC-3, MTT", "result": 350, "unit": "nM"}, {"measurement": "IC50", "setting": "[4]; Homo sapiens, BxPC-3, MTT, 72 h", "result": 180, "unit": "nM"}, {"measurement": "SI (selectivity index)", "setting": "[4]; L-02 versus BxPC-3", "result": 6.44}, {"measurement": "IC90", "setting": "[5]; Homo sapiens, HCT-116, MTT", "result": 640, "unit": "nM"}, {"measurement": "IC50", "setting": "[5]; Homo sapiens, HCT-116, MTT, 72 h", "result": 350, "unit": "nM"}, {"measurement": "SI (selectivity index)", "setting": "[5]; L-02 versus HCT-116", "result": 3.31}, {"measurement": "IC90", "setting": "[6]; Homo sapiens, TE-1, MTT", "result": "> 1000", "unit": "nM"}, {"measurement": "IC50", "setting": "[6]; Homo sapiens, TE-1, MTT, 72 h", "result": 620, "unit": "nM"}, {"measurement": "SI (selectivity index)", "setting": "[6]; L-02 versus TE-1", "result": 1.87}, {"measurement": "IC90", "setting": "[7]; Homo sapiens, DLD-1, MTT", "result": 640, "unit": "nM"}, {"measurement": "IC50", "setting": "[7]; Homo sapiens, DLD-1, MTT, 72 h", "result": 340, "unit": "nM"}, {"measurement": "SI (selectivity index)", "setting": "[7]; L-02 versus DLD-1", "result": 3.41}, {"measurement": "IC90", "setting": "[8]; Homo sapiens, U-87 MG, U87, MTT", "result": "> 1000", "unit": "nM"}, {"measurement": "IC50", "setting": "[8]; Homo sapiens, U-87 MG, U87, MTT, 72 h", "result": 650, "unit": "nM"}, {"measurement": "SI (selectivity index)", "setting": "[8]; L-02 versus U87", "result": 1.78}, {"measurement": "IC90", "setting": "[9]; Homo sapiens, HepG2, Hep G2, MTT", "result": "> 1000", "unit": "nM"}, {"measurement": "IC50", "setting": "[9]; Homo sapiens, HepG2, Hep G2, MTT, 72 h", "result": 420, "unit": "nM"}, {"measurement": "SI (selectivity index)", "setting": "[9]; L-02 versus Hep G2", "result": 2.76}, {"measurement": "IC90", "setting": "[10]; Homo sapiens, SW480, SW-480, MTT", "result": "> 1000", "unit": "nM"}, {"measurement": "IC50", "setting": "[10]; Homo sapiens, SW480, SW-480, MTT, 72 h", "result": 730, "unit": "nM"}, {"measurement": "SI (selectivity index)", "setting": "[10]; L-02 versus SW-480", "result": 1.59}, {"measurement": "IC90", "setting": "[11]; Homo sapiens, HT-29, MTT", "result": "> 1000", "unit": "nM"}, {"measurement": "IC50", "setting": "[11]; Homo sapiens, HT-29, MTT, 72 h", "result": 370, "unit": "nM"}, {"measurement": "SI (selectivity index)", "setting": "[11]; L-02 versus HT-29", "result": 3.14}, {"measurement": "IC90", "setting": "[12]; Homo sapiens, MGC-803, MTT", "result": "> 1000", "unit": "nM"}, {"measurement": "IC50", "setting": "[12]; Homo sapiens, MGC-803, MTT, 72 h", "result": 690, "unit": "nM"}, {"measurement": "SI (selectivity index)", "setting": "[12]; L-02 versus MGC-803", "result": 1.68}, {"measurement": "IC90", "setting": "[13]; Homo sapiens, Eca-109, MTT", "result": "> 1000", "unit": "nM"}, {"measurement": "IC50", "setting": "[13]; Homo sapiens, Eca-109, MTT, 72 h", "result": 540, "unit": "nM"}, {"measurement": "SI (selectivity index)", "setting": "[13]; L-02 versus Eca-109", "result": 2.15}, {"measurement": "IC90", "setting": "[14]; Homo sapiens, HCT-8, MTT", "result": 440, "unit": "nM"}, {"measurement": "IC50", "setting": "[14]; Homo sapiens, HCT-8, MTT, 72 h", "result": 170, "unit": "nM"}, {"measurement": "SI (selectivity index)", "setting": "[14]; L-02 versus HCT-8", "result": 6.82}]}]}
